Results published in patent US10865384B2, “2,4,5-tri-substituted azole-based casein kinase 1 inhibitors as inducers for cardiomyogenesis” (AGENCY FOR SCIENCE, TECHNOLOGY AND RESEARCH, priority 2014, dated 2020).
“Also recorded” adds a separate entry of the source. Like-named read-outs stand apart in the source and are kept apart here.

What was measured:
p38β MAPK = p38β MAPK (Homo sapiens (Human), UniProt Q15759); conditions: read-out: IC50 (published by companies), p38β MAPK inhibition; cited from earlier work
p38α MAPK [1] = conditions: read-out: IC50 (published by companies), p38α MAPK inhibition; cited from earlier work
H3 hESCs Nkx2.5eGFP/w = experiment: High yield cardiomyocyte differentiation after 24 h CHIR99021 pre-treatment; type: cell-based, human; conditions: for Average beating frequency / Beat count (percentage of EBs contracting within 10 s) / Beating area: CHIR99021 only, CHIR99021 with SB203580 (days 1-8), CHIR99021 with IM-31 (days 4-8)
PKD1 = PKD1 (Homo sapiens (Human), UniProt Q15139); conditions: read-out: IC50 (published by companies), PKD1 inhibition; cited from earlier work
CK1 = conditions: read-out: IC50 (published by companies), CK1 inhibition; cited from earlier work
hESC3 Nkx2.5eGFP/w cells [2] = experiment: Differentiation in 96-U bottom ultra-low attachment well plates, GFP area imaging; type: cell-based, human; conditions: 5 μM; for Average GFP %: after CHIR99021, read on day 14, GFP area over embryoid body size; for Average GFP μm^2 / Average Area μm^2: day 14; for Average Area μm^2: embryoid body size
HES-3 = experiment: Differentiation on microcarriers; type: cell-based, human; conditions: microcarrier platform, 5 μM
Description: HES-3 were seeded at 2×10^5 cells/ml in the 50 ml spinner flask that contained 25 ml hESC medium and 200 mg PLL+LN-coated MC (poly-L-lysine and laminin coated microcarrier). The sample was incubated at 37° C./5% carbon dioxide for 24 hours in static conditions, after which another 25 ml hESC medium were added and the culture was then agitated at 30 rpm for 6 days. Eighty percent of the spent medium was replaced daily with fresh hESC medium. The cell concentration and cell viability were determined daily using a Nucleocounter NC-3000 (Chemometec, Davis, Calif., USA). Pluripotent markers were measured by flow cytometry on day 7. The size of the hESC/MC aggregates was measured from images taken using an Olympus IX70 microscope (Olympus, Shinjuku-ku, Tokoyo, Japan), with average dimensions determined using NIH image J software.
After 24 hours the differentiation medium was replenished, and 5 μM IWP-2 or TA-01 was added at day 3. […] On day 20 of the differentiation protocol, cells from all cultures were harvested and analyzed by fluorescence-activated cell sorting (FACS) for cardiac markers MLC2a and Tropoin T (cTnt) and MF20.
Studies with the 2,4,5-tri-substituted azole compounds were done at a fixed concentration of 5 μM at an induction day 2 and alternatively at day 3. […] On day 14 of differentiation, EBs were visually analysed for cardiomyocyte differentiation. […]

p38α MAPK [3] = molecular target: p38α MAPK (Homo sapiens (Human), UniProt Q16539); experiment: HitHunter p38 MAP kinase binding assay; conditions: read-out: p38α MAPK IC50 ± SEM
CK1ϵ = CK1ϵ (Homo sapiens (Human), UniProt P49674); experiment: LanthaScreen Eu kinase binding assay, CK1ϵ
CK1δ = CK1δ (Homo sapiens (Human), UniProt P48730); experiment: LanthaScreen Eu kinase binding assay, CK1δ
hESC3 Nkx2.5eGFP/w cells [4] = experiment: Cardiomyocyte differentiation of embryoid bodies, Nkx2.5 GFP by flow cytometry; type: cell-based, human; conditions: for Cardiogenic effect (GFP expression fold over DMSO): 5 μM
porcupine/Wnt = conditions: read-out: IC50 (published by companies), porcupine/Wnt inhibition; cited from earlier work
p38 MAPK = conditions: read-out: IC50 (published by companies), p38 MAPK inhibition; cited from earlier work
TNF-a = conditions: read-out: IC50 (published by companies), TNF-a inhibition; cited from earlier work

CK1δ, sequence (P48730 whole entry): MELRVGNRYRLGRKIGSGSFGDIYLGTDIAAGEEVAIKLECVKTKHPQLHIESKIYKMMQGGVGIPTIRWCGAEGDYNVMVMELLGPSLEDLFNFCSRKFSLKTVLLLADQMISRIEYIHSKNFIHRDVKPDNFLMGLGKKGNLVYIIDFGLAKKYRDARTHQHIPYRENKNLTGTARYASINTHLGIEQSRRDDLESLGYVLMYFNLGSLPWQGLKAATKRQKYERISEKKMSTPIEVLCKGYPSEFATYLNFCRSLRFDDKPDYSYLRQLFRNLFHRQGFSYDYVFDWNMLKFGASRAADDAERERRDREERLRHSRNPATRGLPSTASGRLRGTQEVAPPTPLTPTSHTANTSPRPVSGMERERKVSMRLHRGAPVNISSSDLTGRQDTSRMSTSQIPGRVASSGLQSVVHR
CK1ϵ, sequence (P49674 whole entry): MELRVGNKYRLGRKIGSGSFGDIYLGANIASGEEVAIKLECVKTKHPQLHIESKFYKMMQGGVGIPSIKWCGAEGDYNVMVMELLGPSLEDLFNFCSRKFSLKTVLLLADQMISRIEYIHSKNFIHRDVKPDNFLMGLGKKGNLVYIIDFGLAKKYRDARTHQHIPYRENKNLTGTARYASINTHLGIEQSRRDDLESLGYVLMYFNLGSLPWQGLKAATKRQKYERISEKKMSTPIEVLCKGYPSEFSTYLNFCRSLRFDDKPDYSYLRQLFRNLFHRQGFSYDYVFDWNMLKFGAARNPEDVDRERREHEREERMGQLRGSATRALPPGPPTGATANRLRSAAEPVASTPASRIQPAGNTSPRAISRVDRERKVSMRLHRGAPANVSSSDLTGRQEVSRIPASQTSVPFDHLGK
PKD1, sequence (Q15139 whole entry): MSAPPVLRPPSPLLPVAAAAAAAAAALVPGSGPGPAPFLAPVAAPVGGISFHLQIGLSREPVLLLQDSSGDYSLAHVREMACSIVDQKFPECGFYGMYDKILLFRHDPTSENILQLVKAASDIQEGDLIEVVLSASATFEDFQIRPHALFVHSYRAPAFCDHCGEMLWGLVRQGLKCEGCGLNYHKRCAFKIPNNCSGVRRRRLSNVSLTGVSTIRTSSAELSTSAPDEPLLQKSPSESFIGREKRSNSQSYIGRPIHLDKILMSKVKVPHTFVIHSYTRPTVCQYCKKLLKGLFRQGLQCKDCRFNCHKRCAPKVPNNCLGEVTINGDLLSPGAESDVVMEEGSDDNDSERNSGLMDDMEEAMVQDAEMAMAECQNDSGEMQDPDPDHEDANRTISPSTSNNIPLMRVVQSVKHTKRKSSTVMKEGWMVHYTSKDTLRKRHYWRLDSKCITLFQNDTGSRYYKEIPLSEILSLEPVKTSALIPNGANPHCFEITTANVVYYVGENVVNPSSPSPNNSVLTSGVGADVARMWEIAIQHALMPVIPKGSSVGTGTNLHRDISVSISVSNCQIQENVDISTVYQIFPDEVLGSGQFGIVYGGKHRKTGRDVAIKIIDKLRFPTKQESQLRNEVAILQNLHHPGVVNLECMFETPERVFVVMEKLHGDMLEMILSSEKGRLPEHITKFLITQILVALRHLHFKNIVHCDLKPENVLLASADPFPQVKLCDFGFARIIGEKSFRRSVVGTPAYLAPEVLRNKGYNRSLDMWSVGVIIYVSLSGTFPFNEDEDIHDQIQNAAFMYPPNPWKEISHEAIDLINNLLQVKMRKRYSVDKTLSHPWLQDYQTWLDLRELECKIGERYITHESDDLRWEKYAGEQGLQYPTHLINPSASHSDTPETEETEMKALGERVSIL
p38β MAPK, sequence (Q15759 whole entry): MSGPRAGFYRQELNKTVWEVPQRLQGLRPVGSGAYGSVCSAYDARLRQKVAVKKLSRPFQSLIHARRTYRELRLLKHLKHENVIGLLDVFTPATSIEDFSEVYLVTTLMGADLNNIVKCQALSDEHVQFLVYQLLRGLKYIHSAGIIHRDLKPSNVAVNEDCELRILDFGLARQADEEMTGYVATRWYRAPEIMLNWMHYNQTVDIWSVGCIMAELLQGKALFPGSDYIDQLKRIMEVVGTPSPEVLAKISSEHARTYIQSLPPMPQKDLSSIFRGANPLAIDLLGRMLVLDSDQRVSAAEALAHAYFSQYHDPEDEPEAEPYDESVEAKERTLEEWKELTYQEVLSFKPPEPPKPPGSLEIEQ
p38α MAPK (Homo sapiens (Human), UniProt Q16539), sequence (Q16539 whole entry, looked up): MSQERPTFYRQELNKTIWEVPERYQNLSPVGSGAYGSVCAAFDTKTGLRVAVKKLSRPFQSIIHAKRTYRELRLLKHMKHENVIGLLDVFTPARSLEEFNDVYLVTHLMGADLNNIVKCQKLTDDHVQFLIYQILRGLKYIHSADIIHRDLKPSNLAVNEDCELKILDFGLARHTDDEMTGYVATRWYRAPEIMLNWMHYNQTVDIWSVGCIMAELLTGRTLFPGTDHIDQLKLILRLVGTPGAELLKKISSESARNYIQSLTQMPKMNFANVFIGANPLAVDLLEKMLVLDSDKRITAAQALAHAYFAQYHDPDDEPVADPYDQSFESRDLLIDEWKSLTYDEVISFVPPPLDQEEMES

## Cc1c[nH]c(-c2cnc(NCCNc3ccc(C#N)cn3)nc2-c2ccc(Cl)cc2Cl)n1 [CHIR99021]
p38β MAPK
  IC50: 6.7 nM
p38α MAPK [1]
  IC50: 10 nM
H3 hESCs Nkx2.5eGFP/w
  Average beating frequency: 25-30 beats per minute
  Beat count (percentage of EBs contracting within 10 s): over 75%
  Beating area: > 5 mm^2
H3 hESCs Nkx2.5eGFP/w; day 11, flow cytometry, 3 μM CHIR99021 for 24 h
  Nkx2.5 population: 30%

## NC(=O)c1ccc(-c2nc(-c3ccc4c(c3)OCCO4)c(-c3ccccn3)[nH]2)cc1 [Compound D4476]
p38α MAPK [1]
  IC50: 5800 nM
PKD1
  IC50: 9100 nM
CK1
  IC50: […]

## Fc1ccc(-c2nc(-c3c(F)cccc3F)[nH]c2-c2ccncc2)cc1 [IM-31, 4-(2-(2,6-difluorophenyl)-4(5)-(4-fluorophenyl)-1H-imidazol-5(4)-yl)pyridine]
hESC3 Nkx2.5eGFP/w cells [2]; at specific time course (induction day 2 or 3)
  Cardiogenic properties: higher cardiogenic properties as SB203580 and IWP-2
hESC3 Nkx2.5eGFP/w cells [2]; Induction Day 2
  Average GFP %: 1.5%
  Average GFP μm^2: 19.1 μm^2
  Average Area μm^2: 814.7 μm^2
hESC3 Nkx2.5eGFP/w cells [2]; Induction Day 3
  Average GFP %: 31.1%
  Average GFP μm^2: 476.6 μm^2
  Average Area μm^2: 1529.1 μm^2
HES-3
  Amounts of cardiomyocytes (cell numbers) compared to IWP-2: same amounts of cardiomyocytes
p38α MAPK [3]
  IC50: 6.7 ± 1.5 nM
H3 hESCs Nkx2.5eGFP/w; 3 μM CHIR99021 24 h then 5 μM days 4-8, day 11
  Total cell count, fold increase (cell expansion): 2 fold
H3 hESCs Nkx2.5eGFP/w
  Average beating frequency: 25-30 beats per minute
  Beat count (percentage of EBs contracting within 10 s): over 75%
  Beating area: > 5 mm^2
H3 hESCs Nkx2.5eGFP/w; CHIR99021 then 5 μM days 1-8
  Cardiomyocyte development: inhibition of cardiomyocytes development
H3 hESCs Nkx2.5eGFP/w; CHIR99021 then 5 μM days 4-8, day 11
  Cardiomyocyte yield, cardiomyocytes per hESC seeded: ~1.2 cardiomyocytes per hESC seeded
H3 hESCs Nkx2.5eGFP/w; combination with CHIR99021
  Cardiomyocyte yield compared to other Wnt inhibitor compounds such as IWP-2: twofold increase in cardiomyocyte yield
CK1ϵ; Table 3, read-out: IC50 Ck1ε
  IC50: 6.4 nM
CK1ϵ; read-out: CK1ϵ IC50 ± SEM
  IC50: 6.4 ± 0.4 nM
CK1δ; Table 3, read-out: IC50 CK1δ
  IC50: 6.8 nM
CK1δ; read-out: CK1δ IC50 ± SEM
  IC50: 6.8 ± 0.9 nM
hESC3 Nkx2.5eGFP/w cells [4]; 1 μM
  Cardiogenic effect (Nkx2.5 expression): same cardiogenic effect as 5 μM of SB203580
hESC3 Nkx2.5eGFP/w cells [4]; days 1-8 of differentiation
  Cardiogenic effect (GFP expression fold over DMSO): complete inhibition of cardiomyocyte development; also recorded: failed to induced cardiomyogenesis
hESC3 Nkx2.5eGFP/w cells [4]; days 4-8 of differentiation
  Cardiogenic effect (GFP expression fold over DMSO): good inducers
hESC3 Nkx2.5eGFP/w cells [4]; applied as the sole inhibitor
  Cardiomyocytes generated: 10-20%

## Cc1ccc2nc(NC(=O)CSc3nc4c(c(=O)n3-c3ccccc3)SCC4)sc2c1 [IWP-2, reference compound]
hESC3 Nkx2.5eGFP/w cells [2]; Induction Day 2
  Average GFP %: 4.8%
  Average GFP μm^2: 19.6 μm^2
  Average Area μm^2: 362.9 μm^2
hESC3 Nkx2.5eGFP/w cells [2]; Induction Day 3
  Average GFP %: 38.4%
  Average GFP μm^2: 216.9 μm^2
  Average Area μm^2: 604.5 μm^2
porcupine/Wnt
  IC50: 27 nM
H3 hESCs Nkx2.5eGFP/w; CHIR99021 then 5 μM days 4-8
  Cell growth: strongly reduced cell growth
H3 hESCs Nkx2.5eGFP/w; combination with CHIR99021, days 4-8
  Cardiomyocyte functionality: reduced functionality

## Skepinone-L
p38 MAPK
  IC50: 5 nM
TNF-a
  IC50: 40 nM
